US8394848B2, “Compounds that modulate intracellular calcium” (Calcimedica, Inc., priority 2008, dated 2013)

Tested on: JR251 or RBL cells
Test: Store-operated calcium entry, either JR251 or RBL cells, or both
Type: cell-based
Method in brief: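 Orai1/STIM1 stable cells: fluo-4-AM loaded, compound 30 min at RT in Ca2+-free HBSS, then CaCl2 added; IC50 from Peak-Basal FLIPR fluorescence. RBL-2H3 cells: compound 5 min, then thapsigargin (5.5× stock, 5.5 uM) 25 min, then calcium added; IC50 from Upslope (signal 7 s after calcium minus baseline).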

SMILES	IC50 [µM]
Cc1nnsc1C(=O)Nc1scc(-c2ccc(Cl)cc2)c1C(=O)O [4-(4-chlorophenyl)-2-(4-methyl-1,2,3-thiadiazole-5-carboxamido)thiophene-3-carboxylic acid]	< 10
O=C(Nc1scc(-c2ccc(Cl)cc2)c1C(=O)O)c1nc2c([N+](=O)[O-])cccc2s1 [4-(4-chlorophenyl)-2-(4-nitrobenzo[d]thiazole-2-carboxamido)thiophene-3-carboxylic acid]	< 10
O=C1CC(C(=O)Nc2scc(-c3ccc(Cl)cc3)c2C(=O)O)Cc2ccccc21 (centres unmarked) [4-(4-chlorophenyl)-2-(4-oxo-1,2,3,4-tetrahydronaphthalene-2-carboxamido)thiophene-3-carboxylic acid]	< 10
O=C(CCCc1ccccc1)Nc1scc(-c2ccc(Cl)cc2)c1C(=O)O [4-(4-chlorophenyl)-2-(4-phenylbutanamido)thiophene-3-carboxylic acid]	< 10
O=C(Nc1scc(-c2ccc(Cl)cc2)c1C(=O)O)c1nccc(-c2ccccc2)n1 [4-(4-chlorophenyl)-2-(4-phenylpyrimidine-2-carboxamido)thiophene-3-carboxylic acid]	< 10
O=C(Nc1scc(-c2ccc(Cl)cc2)c1C(=O)O)c1ccc(-c2ccc(Cl)cc2)o1 [4-(4-chlorophenyl)-2-(5-(4-chlorophenyl)furan-2-carboxamido)thiophene-3-carboxylic acid]	< 10
O=C(Nc1scc(-c2ccc(Cl)cc2)c1C(=O)O)c1ncc(C(F)(F)F)cn1 [4-(4-chlorophenyl)-2-(5-(trifluoromethyl)pyrimidine-2-carboxamido)thiophene-3-carboxylic acid]	< 10
O=C(O)c1c(-c2ccc(Cl)cc2)csc1NC(=O)C1Cc2ccc(F)cc2C1 (centres unmarked) [4-(4-chlorophenyl)-2-(5-fluoro-2,3-dihydro-1H-indene-2-carboxamido)thiophene-3-carboxylic acid]	< 10
Cc1cnc(C(=O)Nc2scc(-c3ccc(Cl)cc3)c2C(=O)O)cn1 [4-(4-chlorophenyl)-2-(5-methylpyrazine-2-carboxamido)thiophene-3-carboxylic acid]	< 10
Cc1cccc2nc(C(=O)Nc3scc(-c4ccc(Cl)cc4)c3C(=O)O)cnc12 [4-(4-chlorophenyl)-2-(5-methylquinoxaline-2-carboxamido)thiophene-3-carboxylic acid]	< 10
O=C(O)c1c(-c2ccc(Cl)cc2)csc1NC(=O)C1Cc2ccc([N+](=O)[O-])cc2C1 (centres unmarked) [4-(4-chlorophenyl)-2-(5-nitro-2,3-dihydro-1H-indene-2-carboxamido)thiophene-3-carboxylic acid]	< 10
O=C(Nc1scc(-c2ccc(Cl)cc2)c1C(=O)O)c1cc(-c2ccccc2)on1 [4-(4-chlorophenyl)-2-(5-phenylisoxazole-3-carboxamido)thiophene-3-carboxylic acid]	< 10
O=C(CCCCc1ccccc1)Nc1scc(-c2ccc(Cl)cc2)c1C(=O)O [4-(4-chlorophenyl)-2-(5-phenylpentanamido)thiophene-3-carboxylic acid]	< 10
O=C(Nc1scc(-c2ccc(Cl)cc2)c1C(=O)O)c1ncc(-c2ccccc2)cn1 [4-(4-chlorophenyl)-2-(5-phenylpyrimidine-2-carboxamido)thiophene-3-carboxylic acid]	< 10
O=C(Nc1scc(-c2ccc(Cl)cc2)c1C(=O)O)c1ccc(-c2ccccc2)s1 [4-(4-chlorophenyl)-2-(5-phenylthiophene-2-carboxamido)thiophene-3-carboxylic acid]	< 10
O=C(Nc1scc(-c2ccc(Cl)cc2)c1C(=O)O)c1ccc(C(F)(F)F)nc1 [4-(4-chlorophenyl)-2-(6-(trifluoromethyl)nicotinamido)thiophene-3-carboxylic acid]	< 10
O=C(Nc1scc(-c2ccc(Cl)cc2)c1C(=O)O)c1nc2ccc([N+](=O)[O-])cc2s1 [4-(4-chlorophenyl)-2-(6-nitrobenzo[d]thiazole-2-carboxamido)thiophene-3-carboxylic acid]	< 10
N#Cc1cccc2nc(C(=O)Nc3scc(-c4ccc(Cl)cc4)c3C(=O)O)oc12 [4-(4-chlorophenyl)-2-(7-cyanobenzo[d]oxazole-2-carboxamido)thiophene-3-carboxylic acid]	< 10
O=C(Nc1scc(-c2ccc(Cl)cc2)c1C(=O)O)c1nc2cccc(F)c2s1 [4-(4-chlorophenyl)-2-(7-fluorobenzo[d]thiazole-2-carboxamido)thiophene-3-carboxylic acid]	< 10
Cc1cccc2ncc(C(=O)Nc3scc(-c4ccc(Cl)cc4)c3C(=O)O)nc12 [4-(4-chlorophenyl)-2-(8-methylquinoxaline-2-carboxamido)thiophene-3-carboxylic acid]	< 10
O=C(Nc1scc(-c2ccc(Cl)cc2)c1C(=O)O)c1ccc2nccn2c1 [4-(4-chlorophenyl)-2-(imidazo[1,2-a]pyridine-6-carboxamido)thiophene-3-carboxylic acid]	< 10
O=C(O)c1c(-c2ccc(Cl)cc2)csc1NC(=O)C1Cc2ccccc2N1 (centres unmarked) [4-(4-chlorophenyl)-2-(indoline-2-carboxamido)thiophene-3-carboxylic acid]	< 10
O=C(O)c1c(-c2ccc(Cl)cc2)csc1NC(=O)N1Cc2ccccc2C1 [4-(4-chlorophenyl)-2-(isoindoline-2-carboxamido)thiophene-3-carboxylic acid]	< 10
O=C(Nc1scc(-c2ccc(Cl)cc2)c1C(=O)O)c1cc2ncccn2n1 [4-(4-chlorophenyl)-2-(pyrazolo[1,5-a]pyrimidine-2-carboxamido)thiophene-3-carboxylic acid]	< 10
O=C(Nc1scc(-c2ccc(Cl)cc2)c1C(=O)O)c1ncc2ccccc2n1 [4-(4-chlorophenyl)-2-(quinazoline-2-carboxamido)thiophene-3-carboxylic acid]	< 10

Further lines, results first:

IC50 [µM]	SMILES
< 10	O=C(Nc1scc(-c2ccc(Cl)cc2)c1C(=O)O)c1nc2c(O)cccc2o1 [4-(4-chlorophenyl)-2-(4-hydroxybenzo[d]oxazole-2-carboxamido)thiophene-3-carboxylic acid]
< 10	Cc1cccc2oc(C(=O)Nc3scc(-c4ccc(Cl)cc4)c3C(=O)O)nc12 [4-(4-chlorophenyl)-2-(4-methylbenzo[d]oxazole-2-carboxamido)thiophene-3-carboxylic acid]
< 10	O=C(Nc1scc(-c2ccc(Cl)cc2)c1C(=O)O)c1cc2occc2[nH]1 [4-(4-chlorophenyl)-2-(4H-furo[3,2-b]pyrrole-5-carboxamido)thiophene-3-carboxylic acid]
< 10	O=C(Nc1scc(-c2ccc(Cl)cc2)c1C(=O)O)c1cc2sccc2[nH]1 [4-(4-chlorophenyl)-2-(4H-thieno[3,2-b]pyrrole-5-carboxamido)thiophene-3-carboxylic acid]
< 10	Cn1nc(C(=O)Nc2scc(-c3ccc(Cl)cc3)c2C(=O)O)cc1-c1ccco1 [4-(4-chlorophenyl)-2-(5-(furan-2-yl)-1-methyl-1H-pyrazole-3-carboxamido)thiophene-3-carboxylic acid]
< 10	O=C(Nc1scc(-c2ccc(Cl)cc2)c1C(=O)O)c1nc2cc(F)ccc2o1 [4-(4-chlorophenyl)-2-(5-fluorobenzo[d]oxazole-2-carboxamido)thiophene-3-carboxylic acid]
< 10	O=C(Nc1scc(-c2ccc(Cl)cc2)c1C(=O)O)c1ccc([N+](=O)[O-])o1 [4-(4-chlorophenyl)-2-(5-nitrofuran-2-carboxamido)thiophene-3-carboxylic acid]
< 10	O=C(Nc1scc(-c2ccc(Cl)cc2)c1C(=O)O)c1ccc(Cl)nn1 [4-(4-chlorophenyl)-2-(6-chloropyridazine-3-carboxamido)thiophene-3-carboxylic acid]
< 10	O=C(Nc1scc(-c2ccc(Cl)cc2)c1C(=O)O)c1nc2ccc(F)cc2o1 [4-(4-chlorophenyl)-2-(6-fluorobenzo[d]oxazole-2-carboxamido)thiophene-3-carboxylic acid]
< 10	COc1cccc(C(=O)Nc2scc(-c3ccc(Cl)cc3)c2C(=O)O)n1 [4-(4-chlorophenyl)-2-(6-methoxypicolinamido)thiophene-3-carboxylic acid]
< 10	Cc1ccc(C(=O)Nc2scc(-c3ccc(Cl)cc3)c2C(=O)O)cn1 [4-(4-chlorophenyl)-2-(6-methylnicotinamido)thiophene-3-carboxylic acid]
< 10	O=C(Nc1scc(-c2ccc(Cl)cc2)c1C(=O)O)c1nc2cccc(F)c2o1 [4-(4-chlorophenyl)-2-(7-fluorobenzo[d]oxazole-2-carboxamido)thiophene-3-carboxylic acid]
< 10	Cc1cccc2nc(C(=O)Nc3scc(-c4ccc(Cl)cc4)c3C(=O)O)oc12 [4-(4-chlorophenyl)-2-(7-methylbenzo[d]oxazole-2-carboxamido)thiophene-3-carboxylic acid]
< 10	O=C(Nc1scc(-c2ccc(Cl)cc2)c1C(=O)O)c1cc2ccccc2nn1 [4-(4-chlorophenyl)-2-(cinnoline-3-carboxamido)thiophene-3-carboxylic acid]
< 10	O=C(Nc1scc(-c2ccc(Cl)cc2)c1C(=O)O)c1ccco1 [4-(4-chlorophenyl)-2-(furan-2-carboxamido)thiophene-3-carboxylic acid]
< 10	O=C(Nc1scc(-c2ccc(Cl)cc2)c1C(=O)O)c1cn2ccsc2n1 [4-(4-chlorophenyl)-2-(imidazo[2,1-b]thiazole-6-carboxamido)thiophene-3-carboxylic acid]
< 10	O=C(Nc1scc(-c2ccc(Cl)cc2)c1C(=O)O)c1ccncc1 [4-(4-chlorophenyl)-2-(isonicotinamido)thiophene-3-carboxylic acid]
< 10	O=C(Nc1scc(-c2ccc(Cl)cc2)c1C(=O)O)c1ccno1 [4-(4-chlorophenyl)-2-(isoxazole-5-carboxamido)thiophene-3-carboxylic acid]
< 10	O=C(Nc1scc(-c2ccc(Cl)cc2)c1C(=O)O)c1cc2ccccn2n1 [4-(4-chlorophenyl)-2-(pyrazolo[1,5-a]pyridine-2-carboxamido)thiophene-3-carboxylic acid]
